According to patent publication US20250353855A1, “HETEROCYCLIC AND HETEROARYL COMPOUNDS FOR TREATING HUNTINGTON'S DISEASE” (PTC THERAPEUTICS, INC., priority 2022, published 2025):
pIC50: −log10 of the molar value.

These molecules were tested on Endogenous Huntingtin Protein (assay: Endogenous Huntingtin Protein Assay (ELISA-based MSD electrochemiluminescence)). Conditions: MSD plates coated with MW1 (expanded polyglutamine) or MAB2166 capture antibody; lysates.
Assay type: cell-based
Protocol: Compounds of Formula (T) were tested using the Meso Scale Discovery (MSD) Assay provided in International Application No. PCT/US2016/066042, filed on Dec. 11, 2016 and claiming priority to U.S. Provisional Application 62/265,652 filed on Dec. 10, 2015, the entire contents of which are incorporated herein by reference.
The Endogenous Huntingtin Protein assay used in Example 1 was developed using the ELISA-based MSD electrochemiluminescence assay platform.
Meso Scale Discovery (MSD) 96-well or 384-well plates were coated overnight at 4° C. with MW1 (expanded polyglutamine) or MAB2166 monoclonal antibody (for capture) at a concentration of 1 μg/mL in PBS (30 μL per well). Plates were then washed three times with 300 μL wash buffer (0.05% Tween-20 in PBS) and blocked (100 μL blocking buffer; 5% BSA in PBS) for 4-5 hours at room temperature with rotational shaking and then washed three times with wash buffer.
Samples (25 μL) were transferred to the antibody-coated MSD plate and incubated overnight at 4° C. After removal of the lysates, the plate was washed three times with wash buffer, and 25 μL of #5656S (Cell signaling; rabbit monoclonal) secondary antibody (diluted to 0.25 μg/mL in 0.05% Tween-20 in blocking buffer) was added to each well and incubated with shaking for 1 Hour at room temperature. Following incubation with the secondary antibody, the wells were rinsed with wash buffer after which 25 μL of goat anti-rabbit SULFO TAG secondary detection antibody (required aspect of the MSD system) (diluted to 0.25 μg/mL in 0.05% Tween-20 in blocking buffer) was added to each well and incubated with shaking for 1 hour at room temperature. After rinsing three times with wash buffer, 150 μL of read buffer T with surfactant (MSD) were added to each empty well, and the plate was imaged on a SI 6000 imager (MSD) according to manufacturers' instructions provided for 96- or 384-well plates.
With `Cn1ncc2cc(O)c(-c3cc4c(nn3)N([C@H]3CC(C)(C)NC(C)(C)[C@H]3F)CC4)cc21` [Cpd 62, 6-{7-[(3S,4S)-3-fluoro-2,2,6,6-tetramethylpiperidin-4-yl]-6,7-dihydro-5H-pyrrolo[2,3-c]pyridazin-3-yl}-1-methyl-1H-indazol-5-ol] the pIC50 was over 7.00.

Same assay, conditions: MSD plates coated with MW1 (expanded polyglutamine) or MAB2166 capture antibody; lysates; read-out: IC50
`Cn1nnc2cc(-c3cc4ccn([C@H]5CC(C)(C)NC(C)(C)[C@H]5F)c4nn3)c(O)cc21` [Cpd 41, 5-{7-[(3S,4S)-3-fluoro-2,2,6,6-tetramethylpiperidin-4-yl]-7H-pyrrolo[2,3-c]pyridazin-3-yl}-1-methyl-1H-benzotriazol-6-ol] showed a pIC50 of over 7.00. `Cn1nnc2cc(O)c(-c3cc4ccn([C@H]5CC(C)(C)NC(C)(C)[C@H]5F)c4nn3)cc21` [Cpd 42, 6-{7-[(3S,4S)-3-fluoro-2,2,6,6-tetramethylpiperidin-4-yl]-7H-pyrrolo[2,3-c]pyridazin-3-yl}-1-methyl-1H-benzotriazol-5-ol] was tested, and the pIC50 was over 7.00. In the case of `Cc1nc2cc(O)c(-c3cc4c(nn3)N([C@H]3CCNC5(CC5)C3)CC4)cc2o1` [Cpd 43, 6-{7-[(7S)-4-azaspiro[2.5]octan-7-yl]-6,7-dihydro-5H-pyrrolo[2,3-c]pyridazin-3-yl}-2-methyl-1,3-benzoxazol-5-ol], the pIC50 was over 7.00. Work on `Cc1nc2cc(O)c(-c3cc4c(nn3)N([C@H]3CC(C)(C)NC(C)(C)[C@H]3F)CC4)cc2o1` [Cpd 44, 6-{7-[(3S,4S)-3-fluoro-2,2,6,6-tetramethylpiperidin-4-yl]-6,7-dihydro-5H-pyrrolo[2,3-c]pyridazin-3-yl}-2-methyl-1,3-benzoxazol-5-ol] yielded a pIC50 of over 7.00. With `CC1(C)C[C@H](N2CCc3cc(-c4cc5nccnc5cc4O)nnc32)[C@H](F)C(C)(C)N1` [Cpd 45, 7-{7-[(3S,4S)-3-fluoro-2,2,6,6-tetramethylpiperidin-4-yl]-6,7-dihydro-5H-pyrrolo[2,3-c]pyridazin-3-yl}quinoxalin-6-ol] the pIC50 was over 7.00. Molecule `Cc1nc2cc(-c3cc4c(nn3)N([C@H]3CC(C)(C)NC(C)(C)[C@H]3F)CC4)c(O)cc2[nH]1` [Cpd 46, 5-{7-[(3S,4S)-3-fluoro-2,2,6,6-tetramethylpiperidin-4-yl]-6,7-dihydro-5H-pyrrolo[2,3-c]pyridazin-3-yl}-2-methyl-1H-benzimidazol-6-ol] has a pIC50 of over 7.00. With `CC1(C)C[C@H](N2CCc3cc(-c4cc5nn[nH]c5cc4O)nnc32)[C@H](F)C(C)(C)N1` [Cpd 47, 5-{7-[(3S,4S)-3-fluoro-2,2,6,6-tetramethylpiperidin-4-yl]-6,7-dihydro-5H-pyrrolo[2,3-c]pyridazin-3-yl}-1H-benzotriazol-6-ol] the pIC50 was over 7.00. For `Cc1nc2cc(-c3cc4c(nn3)N([C@H]3CC(C)(C)NC(C)(C)[C@H]3F)CC4)c(O)cc2n1C` [Cpd 48, 5-{7-[(3S,4S)-3-fluoro-2,2,6,6-tetramethylpiperidin-4-yl]-6,7-dihydro-5H-pyrrolo[2,3-c]pyridazin-3-yl}-1,2-dimethyl-1H-benzimidazol-6-ol], the pIC50 was over 7.00. `Oc1cc2nccnc2cc1-c1cc2c(nn1)N([C@H]1CCNC3(CC3)C1)CC2` [Cpd 49, 7-{7-[(7S)-4-azaspiro[2.5]octan-7-yl]-6,7-dihydro-5H-pyrrolo[2,3-c]pyridazin-3-yl}quinoxalin-6-ol] showed a pIC50 of over 7.00. In the case of `Cn1nnc2cc(-c3cc4c(nn3)N([C@H]3CC(C)(C)NC(C)(C)[C@H]3F)CC4)c(O)cc21` [Cpd 50, 5-{7-[(3S,4S)-3-fluoro-2,2,6,6-tetramethylpiperidin-4-yl]-6,7-dihydro-5H-pyrrolo[2,3-c]pyridazin-3-yl}-1-methyl-1H-benzotriazol-6-ol], the pIC50 was over 7.00. `Cc1nc2cc(O)c(-c3cc4c(nn3)N([C@H]3CC(C)(C)NC(C)(C)[C@H]3F)CC4)cc2nc1C` [Cpd 51, 7-{7-[(3S,4S)-3-fluoro-2,2,6,6-tetramethylpiperidin-4-yl]-6,7-dihydro-5H-pyrrolo[2,3-c]pyridazin-3-yl}-2,3-dimethylquinoxalin-6-ol] was tested, and the pIC50 was over 7.00. `Cc1nc2cc(O)c(-c3cc4c(nn3)N([C@H]3CC(C)(C)NC(C)(C)[C@H]3F)CC4)cc2s1` [Cpd 52, 6-{7-[(3S,4S)-3-fluoro-2,2,6,6-tetramethylpiperidin-4-yl]-6,7-dihydro-5H-pyrrolo[2,3-c]pyridazin-3-yl}-2-methyl-1,3-benzothiazol-5-ol] showed a pIC50 of over 7.00. `CC1(C)C[C@H](N2CCc3cc(-c4cc5cccnc5cc4O)nnc32)[C@H](F)C(C)(C)N1` [Cpd 53, 6-{7-[(3S,4S)-3-fluoro-2,2,6,6-tetramethylpiperidin-4-yl]-6,7-dihydro-5H-pyrrolo[2,3-c]pyridazin-3-yl}quinolin-7-ol] gave a pIC50 of over 7.00. With `CC1(C)C[C@H](N2CCc3cc(-c4cc5cnccc5cc4O)nnc32)[C@H](F)C(C)(C)N1` [Cpd 54, 7-{7-[(3S,4S)-3-fluoro-2,2,6,6-tetramethylpiperidin-4-yl]-6,7-dihydro-5H-pyrrolo[2,3-c]pyridazin-3-yl}isoquinolin-6-ol] the pIC50 was over 7.00. In the case of `Cc1cnc2cc(O)c(-c3cc4c(nn3)N([C@H]3CC(C)(C)NC(C)(C)[C@H]3F)CC4)cc2n1` [Cpd 55, 7-{7-[(3S,4S)-3-fluoro-2,2,6,6-tetramethylpiperidin-4-yl]-6,7-dihydro-5H-pyrrolo[2,3-c]pyridazin-3-yl}-2-methylquinoxalin-6-ol], the pIC50 was over 7.00. Molecule `Cc1cnc2cc(-c3cc4c(nn3)N([C@H]3CC(C)(C)NC(C)(C)[C@H]3F)CC4)c(O)cc2n1` [Cpd 56, 7-{7-[(3S,4S)-3-fluoro-2,2,6,6-tetramethylpiperidin-4-yl]-6,7-dihydro-5H-pyrrolo[2,3-c]pyridazin-3-yl}-3-methylquinoxalin-6-ol] has a pIC50 of over 7.00. Work on `O=C1CCc2cc(-c3cc4c(nn3)N([C@H]3CCNC5(CC5)C3)CC4)c(O)cc21` [Cpd 57, 5-{7-[(7S)-4-azaspiro[2.5]octan-7-yl]-6,7-dihydro-5H-pyrrolo[2,3-c]pyridazin-3-yl}-6-hydroxy-2,3-dihydro-1H-inden-1-one] yielded a pIC50 of 6.30 to 7.00. Molecule `O=c1ccc2cc(-c3cc4c(nn3)N([C@H]3CCNC5(CC5)C3)CC4)c(O)cc2o1` [Cpd 59, 6-{7-[(7S)-4-azaspiro[2.5]octan-7-yl]-6,7-dihydro-5H-pyrrolo[2,3-c]pyridazin-3-yl}-7-hydroxy-2H-1-benzopyran-2-one] has a pIC50 of over 7.00. `CO/N=C1/CCc2cc(-c3cc4c(nn3)N([C@H]3CCNC5(CC5)C3)CC4)c(O)cc21` [Cpd 60, (3Z)-6-{7-[(7S)-4-azaspiro[2.5]octan-7-yl]-6,7-dihydro-5H-pyrrolo[2,3-c]pyridazin-3-yl}-3-(methoxyimino)-2,3-dihydro-1H-inden-5-ol] showed a pIC50 of 6.00 to 6.30. In the case of `Cc1cc(=O)oc2cc(O)c(-c3cc4c(nn3)N([C@H]3CC(C)(C)NC(C)(C)[C@H]3F)CC4)cc12` [Cpd 65, 6-{7-[(3S,4S)-3-fluoro-2,2,6,6-tetramethylpiperidin-4-yl]-6,7-dihydro-5H-pyrrolo[2,3-c]pyridazin-3-yl}-7-hydroxy-4-methyl-2H-1-benzopyran-2-one], the pIC50 was over 7.00. For `Cc1cc(=O)oc2cc(O)c(-c3cc4c(nn3)N([C@H]3CCNC5(CC5)C3)CC4)cc12` [Cpd 66, 6-{7-[(7S)-4-azaspiro[2.5]octan-7-yl]-6,7-dihydro-5H-pyrrolo[2,3-c]pyridazin-3-yl}-7-hydroxy-4-methyl-2H-1-benzopyran-2-one], the pIC50 was over 7.00. `CC1(C)C[C@H](N2CCc3cc(-c4cc5ccc(=O)oc5cc4O)nnc32)[C@H](F)C(C)(C)N1` [Cpd 67, 6-{7-[(3S,4S)-3-fluoro-2,2,6,6-tetramethylpiperidin-4-yl]-6,7-dihydro-5H-pyrrolo[2,3-c]pyridazin-3-yl}-7-hydroxy-2H-1-benzopyran-2-one] gave a pIC50 of over 7.00. In the case of `Cc1cc(=O)c2cc(-c3cc4c(nn3)N([C@H]3CC(C)(C)NC(C)(C)[C@H]3F)CC4)c(O)cc2o1` [Cpd 68, 6-{7-[(3S,4S)-3-fluoro-2,2,6,6-tetramethylpiperidin-4-yl]-6,7-dihydro-5H-pyrrolo[2,3-c]pyridazin-3-yl}-7-hydroxy-2-methyl-4H-1-benzopyran-4-one], the pIC50 was over 7.00. `CC1(C)C[C@H](N2CCc3cc(-c4cc5c(=O)ccoc5cc4O)nnc32)[C@H](F)C(C)(C)N1` [Cpd 69, 6-{7-[(3S,4S)-3-fluoro-2,2,6,6-tetramethylpiperidin-4-yl]-6,7-dihydro-5H-pyrrolo[2,3-c]pyridazin-3-yl}-7-hydroxy-4H-1-benzopyran-4-one] gave a pIC50 of over 7.00. `CC1(C)C[C@H](N2CCc3cc(-c4cc5ccncc5cc4O)nnc32)[C@H](F)C(C)(C)N1` [Cpd 70, 6-{7-[(3S,4S)-3-fluoro-2,2,6,6-tetramethylpiperidin-4-yl]-6,7-dihydro-5H-pyrrolo[2,3-c]pyridazin-3-yl}isoquinolin-7-ol] gave a pIC50 of over 7.00. Molecule `Cc1nc2cc(O)c(-c3cc4c(nn3)N(C3CC5(CC5)NC5(CC5)C3)CC4)cc2s1` (stereo not drawn) [Cpd 71, 6-[7-(4-azadispiro[2.1.25.33]decan-9-yl)-6,7-dihydro-5H-pyrrolo[2,3-c]pyridazin-3-yl]-2-methyl-1,3-benzothiazol-5-ol] has a pIC50 of over 7.00.
